Measurements published in article PMC9124600 (Medical Oncology (Northwood, London, England), 2022).

Molecular target: T1, MASTL kinase (Microtubule-associated serine/threonine kinase-like; Great wall kinase) (Homo sapiens, UniProt Q96GX5)
T1 sequence (Q96GX5 1-879): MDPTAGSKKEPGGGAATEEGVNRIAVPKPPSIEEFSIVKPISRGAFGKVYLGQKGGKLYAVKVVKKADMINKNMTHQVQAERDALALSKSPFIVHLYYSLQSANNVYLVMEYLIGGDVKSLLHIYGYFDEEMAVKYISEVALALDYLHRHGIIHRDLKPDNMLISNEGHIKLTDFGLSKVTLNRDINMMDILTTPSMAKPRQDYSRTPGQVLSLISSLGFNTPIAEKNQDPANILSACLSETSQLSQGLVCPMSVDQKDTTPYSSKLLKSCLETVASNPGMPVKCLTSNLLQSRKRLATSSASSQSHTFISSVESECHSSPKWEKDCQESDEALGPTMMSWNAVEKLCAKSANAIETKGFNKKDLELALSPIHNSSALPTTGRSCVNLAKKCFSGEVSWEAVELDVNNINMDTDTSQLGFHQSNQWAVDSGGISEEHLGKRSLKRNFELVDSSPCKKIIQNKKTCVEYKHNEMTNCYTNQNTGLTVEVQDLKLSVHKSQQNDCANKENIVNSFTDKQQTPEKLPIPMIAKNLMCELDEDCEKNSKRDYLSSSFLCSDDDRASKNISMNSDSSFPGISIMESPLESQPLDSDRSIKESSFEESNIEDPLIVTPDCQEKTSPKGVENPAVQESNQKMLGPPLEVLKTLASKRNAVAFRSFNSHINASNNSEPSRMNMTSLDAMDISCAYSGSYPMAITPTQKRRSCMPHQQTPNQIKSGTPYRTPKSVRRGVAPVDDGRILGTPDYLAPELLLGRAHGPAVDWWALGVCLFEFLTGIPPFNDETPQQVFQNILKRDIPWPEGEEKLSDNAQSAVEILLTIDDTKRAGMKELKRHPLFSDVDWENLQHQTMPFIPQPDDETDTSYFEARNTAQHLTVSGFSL
Experiment: ADP-Glo luminescent in vitro kinase assay
Assay type: biochemical

Row | SMILES | EC50 [µM]
1 | Cn1cc(C2=C(c3cn(C4CCN(Cc5ccccn5)CC4)c4ccccc34)C(=O)NC2=O)c2ccccc21 [Enzastaurin] | 17.1
2 | CC(=O)c1c(C)c2cnc(Nc3ccc(N4CCNCC4)cn3)nc2n(C2CCCC2)c1=O [Palbociclib] | 10.5
